The values that follow come from US20230183239A1, “ECTONUCLEOTIDE PYROPHOSPHATASE-PHOSPHODIESTERASE 1 (ENPP-1) INHIBITORS AND USES THEREOF” (AbbVie Inc., priority 2017, published 2023).

The assay has as its target T1, ENPP1 (Homo sapiens, UniProt P22413).
T1 sequence (P22413 1-925): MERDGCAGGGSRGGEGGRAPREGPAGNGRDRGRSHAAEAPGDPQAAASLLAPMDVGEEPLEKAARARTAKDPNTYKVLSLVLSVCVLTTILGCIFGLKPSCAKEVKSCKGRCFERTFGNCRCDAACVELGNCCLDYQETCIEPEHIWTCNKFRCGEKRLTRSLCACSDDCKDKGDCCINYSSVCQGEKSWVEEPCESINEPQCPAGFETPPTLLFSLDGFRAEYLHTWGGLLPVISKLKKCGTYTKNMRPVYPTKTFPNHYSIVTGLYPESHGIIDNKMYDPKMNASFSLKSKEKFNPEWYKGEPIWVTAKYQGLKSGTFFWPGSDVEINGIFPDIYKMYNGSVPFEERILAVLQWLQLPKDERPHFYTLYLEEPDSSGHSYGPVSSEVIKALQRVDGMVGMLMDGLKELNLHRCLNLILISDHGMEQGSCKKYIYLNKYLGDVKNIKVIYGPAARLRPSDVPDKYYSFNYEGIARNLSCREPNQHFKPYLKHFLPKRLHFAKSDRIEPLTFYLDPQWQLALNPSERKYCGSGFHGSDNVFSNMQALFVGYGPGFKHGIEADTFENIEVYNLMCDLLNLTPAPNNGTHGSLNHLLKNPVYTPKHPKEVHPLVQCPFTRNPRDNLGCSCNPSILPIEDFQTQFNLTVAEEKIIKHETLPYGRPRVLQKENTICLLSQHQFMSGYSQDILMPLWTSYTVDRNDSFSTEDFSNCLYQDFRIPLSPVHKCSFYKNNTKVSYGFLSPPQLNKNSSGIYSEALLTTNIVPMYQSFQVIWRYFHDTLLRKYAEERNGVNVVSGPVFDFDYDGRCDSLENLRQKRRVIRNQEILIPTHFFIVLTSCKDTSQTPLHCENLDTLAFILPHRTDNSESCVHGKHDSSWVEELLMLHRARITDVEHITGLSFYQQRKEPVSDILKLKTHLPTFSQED
Description: Indirect quantitation of 2',3'-cGAMP hydrolysis (AMP-Glo Assay kit). To be noted: cGAMP substrate; Ki from IC50 by Cheng-Prusoff; read-out: ENPP1 Inhibition -cGAMP: Ki. The format is biochemical.

Bounds are passed on as bounds.

In general, Ki refers to a measure of affinity in units of concentration, obtained from inhibition or displacement. Regarding `COc1cc2ncnc(N3CCC(CCNS(=O)(=O)C(F)(F)F)CC3)c2cc1OC` [Example 146, N-(2-(1-(6,7-dimethoxyquinazolin-4-yl)piperidin-4-yl)ethyl)-1,1,1-trifluoromethanesulfonamide], the inhibition constant Ki fell in the range of 0.1 to 1 µM.

As for `COc1cc2c(=O)ccn(Cc3ccc(NS(N)(=O)=O)cc3)c2cc1OC` [Example 151, N-(4-((6,7-dimethoxy-4-oxoquinolin-1 (4H)-yl)methyl)phenyl) sulfamide], the Ki is less than 0.1 µM.

With `COc1ccc(S(=O)(=O)N2CCN(CCNS(N)(=O)=O)CC2)cc1OC` [Example 152, N-(2-(4-((3,4-dimethoxyphenyl)sulfonyl)piperazin-1-yl)ethyl)sulfamide], the Ki was more than 1 µM.

As for `COc1cc2nccc(C(=O)N3CCC(CCNS(N)(=O)=O)CC3)c2cc1OC` [Example 154, N-(2-(1-(6,7-dimethoxyquinoline-4-carbonyl)piperidin-4-yl)ethyl)sulfamide], the Ki is more than 1 µM.

On to `COc1cc2ncnc(N3CCC(CCNS(=O)(=O)c4ccccn4)CC3)c2cc1OC` [Example 155, N-(2-(1-(6,7-dimethoxyquinazolin-4-yl)piperidin-4-yl)ethyl)pyridine-2-sulfonamide], for which the inhibition constant (Ki) is 0.1 to 1 µM.

For `COc1cc2ncnc(N3CC=C(c4ccc5c(c4)COB5O)CC3)c2cc1OC` [Example 157, 5-(1-(6,7-dimethoxyquinazolin-4-yl)-1,2,3,6-tetrahydropyridin-4-yl)benzo[c][1,2] oxaborol-1(3H)-ol], the Ki was less than 0.1 µM.

Consider `COc1cc2ncnc(NCc3ccc(S(=O)(=O)O)cc3)c2cc1OC` [Example 161, 4-(((6,7-dimethoxyquinazolin-4-yl)amino)methyl)benzene sulfonic acid], for which the inhibitory constant (Ki) was more than 1 µM.

`COc1cc2nccc(Oc3ccc(NS(=O)(=O)C(F)(F)F)cc3)c2cc1OC` [Example 162, N-(4-((6,7-dimethoxyquinolin-4-yl)oxy)phenyl)-1,1,1-trifluoromethanesulfonamide]: the inhibition constant Ki is less than 0.1 µM.

As to `CNC(=O)c1ccc2c(N3CCC(CCNS(N)(=O)=O)CC3)ncnc2c1` [Example 163, N-methyl-4-(4-(2-(sulfamoylamino)ethyl)piperidin-1-yl)quinazoline-7-carboxamide], the Ki was more than 1 µM.

For the compound `COc1cc2ncn(Cc3ccc(NS(N)(=O)=O)cc3)c(=O)c2cc1OC` [Example 165, N-(4-((6,7-dimethoxy-4-oxoquinazolin-3 (4H)-yl)methyl)phenyl) sulfamide], the Ki is more than 1 µM.

As for `COc1cc2cnn(-c3ccc(CNS(N)(=O)=O)cc3)c2cc1OC` [Example 166, N-(4-(5,6-dimethoxy-1H-indazol-1-yl)benzyl)sulfamide], the inhibition constant Ki lay in the range of 0.1 to 1 µM.

`CNS(=O)(=O)NCCC1CCN(c2ncnc3cc(OC)c(OC)cc23)CC1` [Example 168, 2-(1-(6,7-dimethoxyquinazolin-4-yl)piperidin-4-yl)ethan-1-amino(N-methyl)sulfonamide]: the Ki is more than 1 µM.

For the compound `NS(=O)(=O)NCCC1CCN(c2ncnc3cc4c(cc23)OCO4)CC1` [Example 170, N-(2-(1-([1,3]dioxolo[4,5-g]quinazolin-8-yl)piperidin-4-yl)ethyl)sulfamide], the Ki is more than 1 µM.

In the case of `COc1cc2c(cc1OC)N(Cc1ccc(NS(N)(=O)=O)cc1)C(=O)CC2` [Example 173, N-(4-((6,7-dimethoxy-2-oxo-3,4-dihydroquinolin-1 (2H)-yl)methyl)phenyl) sulfamide], the inhibitory constant (Ki) is more than 1 µM.

With `COc1cc2nccc(Oc3ccc(NS(N)(=O)=O)nc3)c2cc1OC` [Example 176, N-(5-((6,7-dimethoxyquinolin-4-yl)oxy)pyridin-2-yl)sulfamide], the inhibitory constant (Ki) was more than 1 µM.

Turning to `COc1cc2nccc(N3CCC(CCNS(=O)(=O)NCC(F)(F)F)CC3)c2cc1OC` [Example 177, 2-(1-(6,7-dimethoxyquinolin-4-yl)piperidin-4-yl)ethan-1-amino(N-trifluoroethyl) sulfonamide], the inhibitory constant (Ki) was more than 1 µM.

`COc1cc2nccc(C(=O)N3CCC(CNS(N)(=O)=O)CC3)c2cc1OC` [Example 178, N-((1-(6,7-dimethoxyquinoline-4-carbonyl)piperidin-4-yl)methyl)sulfamide]: the Ki is more than 1 µM.

`COc1cc2ncnc(OCc3ccc(NS(N)(=O)=O)cc3)c2cc1OC` [Example 179, N-(4-(((6,7-dimethoxyquinazolin-4-yl)oxy)methyl)phenyl)sulfamide]: the Ki was more than 1 µM.

Regarding `COc1cc2nccc(NC(C)c3ccc(NS(N)(=O)=O)cc3)c2cc1OC` (stereo not shown) [Example 181, N-(4-(1-((6,7-dimethoxyquinolin-4-yl)amino)ethyl)phenyl)sulfamide], the Ki was more than 1 µM.

Regarding `COc1cc2ncnc(N3CCC(CCNS(=O)(=O)Nc4ccccc4)CC3)c2cc1OC` [Example 183], the Ki was more than 1 µM.

With `COc1cc2ccn(-c3ccc(CNS(N)(=O)=O)cc3)c2cc1OC` [Example 186, N-(4-(5,6-dimethoxy-1H-indol-1-yl)benzyl)sulfamide], the inhibition constant Ki is more than 1 µM.

Take `COc1cc2nccc(N3CCC4(CCNC4=O)CC3)c2cc1OC` [Example 187, 8-(6,7-dimethoxyquinolin-4-yl)-2,8-diazaspiro[4.5]decan-1-one]: the inhibition constant Ki was more than 1 µM.

Consider `COc1cc2ncnc(NC(=O)c3ccc(NS(N)(=O)=O)cc3)c2cc1OC` [Example 188, N-(6,7-dimethoxyquinazolin-4-yl)-4-(sulfamoylamino)benzamide], for which the Ki was in the range of 0.1 to 1 µM.

As to `NC(=O)c1ccc2nccc(N3CCC(CCNS(N)(=O)=O)CC3)c2c1` [Example 192, 4-(4-(2-(sulfamoylamino)ethyl)piperidin-1-yl)quinoline-6-carboxamide], the inhibitory constant (Ki) is more than 1 µM.

`NS(=O)(=O)NCCC1CCN(c2ncnc3ccc(OC(F)(F)F)cc23)CC1` [Example 194, N-(2-(1-(6-(trifluoromethoxy)quinazolin-4-yl)piperidin-4-yl)ethyl)sulfamide]: the Ki is more than 1 µM.

Turning to `NS(=O)(=O)NCCC1CCN(c2ncnc3cc(OC(F)(F)F)ccc23)CC1` [Example 209, N-(2-(1-(7-(trifluoromethoxy)quinazolin-4-yl)piperidin-4-yl)ethyl)sulfamide], the inhibition constant Ki was more than 1 µM.

Consider `COc1cc2cnn(-c3ccc(CCNS(N)(=O)=O)cc3)c2cc1OC` [Example 210, N-(4-(5,6-dimethoxy-1H-indazol-1-yl)phenethyl)sulfamide], for which the Ki was more than 1 µM.

Take `NS(=O)(=O)NCCC1CCN(c2ccnc3ncn(-c4ccccc4)c23)CC1` [Example 211, N-(2-(1-(1-phenyl-1H-imidazo[4,5-b]pyridin-7-yl)piperidin-4-yl)ethyl)sulfamide]: the Ki is more than 1 µM.

For the compound `NS(=O)(=O)NCCC1CCN(c2ccnc3cc4c(cc23)OCO4)CC1` [Example 215, N-(2-(1-([1,3]dioxolo[4,5-g]quinolin-8-yl)piperidin-4-yl)ethyl)sulfamide], the Ki was more than 1 µM.

Turning to `N#Cc1cnc2cc3c(cc2c1N1CCC(CCNS(N)(=O)=O)CC1)OCO3` [Example 221, N-(2-(1-(7-cyano-[1,3]dioxolo[4,5-g]quinolin-8-yl)piperidin-4-yl)ethyl)sulfamide], the inhibition constant (Ki) was more than 1 µM.

For the compound `COc1cc2nccc(N3CCC(CN4CCCNS4(=O)=O)CC3)c2cc1OC` [Example 223, 2-((1-(6,7-dimethoxyquinolin-4-yl)piperidin-4-yl)methyl)-1,2,6-thiadiazinane 1,1-dioxide], the Ki is more than 1 µM.

Take `COc1cc2ncnc(NCc3ccc(N4CCNS4(=O)=O)cc3)c2cc1OC` [Example 228, 2-(4-(((6,7-dimethoxyquinazolin-4-yl)amino)methyl)phenyl)-1,2,5-thiadiazolidine 1,1-dioxide]: the Ki was more than 1 µM.

For the compound `NS(=O)(=O)NCCC1CCN(c2ncnc3c2CCN(Cc2ccccc2)C3)CC1` [Example 233, N-(2-(1-(7-benzyl-5,6,7,8-tetrahydropyrido[3,4-d]pyrimidin-4-yl)piperidin-4-yl)ethyl)sulfamide], the inhibitory constant (Ki) is more than 1 µM.

In the case of `COc1cc2ncnc(Nc3ccc(CNS(N)(=O)=O)cc3)c2cc1OC` [Example 234, N-(4-((6,7-dimethoxyquinazolin-4-yl)amino)benzyl)sulfamide], the Ki is more than 1 µM.

As to `COc1cc2ncnc(Nc3ccc(N4CCNS4(=O)=O)cc3)c2cc1OC` [Example 243, 2-(4-((6,7-dimethoxyquinazolin-4-yl)amino)phenyl)-1,2,5-thiadiazolidine 1,1-dioxide], the inhibition constant (Ki) was more than 1 µM.

`COc1cc2ncnc(N3CCC(CNc4nc5ccccc5[nH]4)CC3)c2cc1OC` [Example 251, N-((1-(6,7-dimethoxyquinazolin-4-yl)piperidin-4-yl)methyl)-1H-benzo[d]imidazol-2-amine]: the inhibition constant Ki was more than 1 µM.

As for `COc1cc2ncnc(N3CCC(Cn4c(N)nc5ccccc54)CC3)c2cc1OC` [Example 252, 1-((1-(6,7-dimethoxyquinazolin-4-yl)piperidin-4-yl)methyl)-1H-benzo[d]imidazol-2-amine], the Ki is more than 1 µM.
